# In patent publication US6841385B2, “Transcription factor E2F DNA-binding domain inhibitor peptides and their use” (Topotarget UK Limited, priority 1999, dated 2005):
# Bridge positions count the residues as written; N and C are the ends. Square brackets hold non-standard residues; d marks the D form. Ends that are not written are not given here. I, II: the chains in the order shown. βAla = NCCC(=O)O
# Key:
# [1] = test system: C33A (cervical carcinoma); assay: BrDU proliferation assay, C33A cells; format: cell-based; details: 24 hrs, dose-dependent
# Protocol: (§1) Four tumor cell lines U2OS (osteosarcoma), C33A (cervical carcinoma), HeLa (cervical carcinoma) and E2F4/ras (derived from primary rat embryo fibroblasts) were treated with the branched peptide MAP-4-SEQ ID NO:2-TAT or mutant control peptide MAP-4-SEQ ID NO:39-TAT for 24 hrs. Cell proliferation was measured using the BrDU proliferation assay from Boehringer Mannheim (Cat No. 1 647 229).
# [2] = test system: HL60 cells; assay: Nuclease-laddering assay (DNA laddering) in HL60 cells; format: cell-based
# Protocol: Treated cells were collected, washed with PBS, resuspended in lysis buffer (50 mM Tris pH 7.9, 100 mM EDTA, pH 8, 100 mM NaCl, 1% SDS) and 500 μg/ml proteinase K and incubated at 55° C. for 18 h. Cells were then incubated with […] for 1 hour at 37° C., genomic DNA was purified and examined by agarose gel electrophoresis.
# (§2) Effects became visible after 5-24 hours defending on the concentration of the peptide.
# [3] = test system: SV-40 promoter; assay: Transcription from the SV-40 promoter (control), HeLa cells; format: cell-based
# Source text: (§3) This finding is in agreement with the anti-repressor function of E2F in the CycA promoter, (Liu et al, Oncogene (1998), 16, 2957-2963).
# [4] = test system: HeLa cells; assay: BrdU incorporation cell proliferation assay, HeLa cells; format: cell-based; details: 24 hrs, dose-dependent
# Protocol: (§4) HeLa cells were grown in Dulbecco's Modified Eagle's Medium (DMEM) supplemented with fetal calf serum (FCS) and HL60 cells in RPMI 1640 supplemented with 10% FCS. Cells were treated with peptides in culture medium and incubated overnight before harvesting.
# The peptides were tested in further experiments for their effect on cell cycle progression and cell viability. For this purpose, the peptides were conjugated at their C-terminus to a cell penetrating HIV-Tat derived peptide (aa 48-60) (Fawell et al. (1994) Proc. Natl. Acad. Sci. USA 91, 664-668).
# (§5) HeLa, 3T3, W138 cells were treated with varying concentration of MAP-4-SEQ ID NO:2-TAT and a control peptide MAP-4-SEQ ID NO:39-TAT wherein SEQ ID NO:39 is SEQ ID NO:2 but containing 2 alanine substitutions at positions 1 and 4, i.e. AVRAHF (SEQ ID NO:39) DNA replication was analysed by BrdU incorporation after 24 hours.
# as §1
# [5] = test system: U2OS (osteosarcoma); assay: BrDU proliferation assay, U2OS cells; format: cell-based; details: 24 hrs, dose-dependent
# Protocol: as §1
# [6] = test system: HL60 cells; assay: Apoptosis, staining of HL60 cells with Heochst 33342 propidium iodide; format: cell-based
# Protocol: as §2
# [7] = test system: CycA promoter; assay: Transcription from the CycA promoter, HeLa cells transiently transfected with CycA-Luciferase construct; format: cell-based
# Source text: as §3
# [8] = test system: HL60 cells; assay: Growth of HL60 cells treated with peptide; format: cell-based
# Protocol: as §4, §5, §2
# [9] = test system: E2F4/ras (derived from primary rat embryo fibroblasts); assay: BrDU proliferation assay, E2F4/ras cells; format: cell-based; details: 24 hrs, dose-dependent
# Protocol: as §1
# [10] = target: T1, recombinant E2F1 N1-His (64-301) with DP1 N2-GST (84-249) (human, UniProt Q01094 64-301; Q14186 84-249); assay: band shift, recombinant E2F1 and DP1, displacement of 32P B-myb E2F-site probe
# T1 construct: range 64-301;range 84-249; Both proteins were incubated together at 10 ug/ml in the band shift assay with a 32P-labelled B-myb E2F-site probe; also called recombinant E2F1 and DP1; not shown: His tag from vector pET28b; GST fusion partner
# [11] = target: T1, recombinant E2F1 N1-His (64-301) with …; assay: deletion analysis; inhibition of E2F DNA binding (band shift)
# Protocol: Probes were labelled by filling-in 5' overhanging ends of 4–7 bases. Samples were run on 4% non denaturing polyacrylamide gel in 0.5% TBE at 4° C. Gels were exposed to X-ray films. […] The samples were then incubated for 10 minutes at 30° C. and cooled on ice. ^32P-labelled probe was added, the reaction mixtures were incubated for another 10 minutes at 30° C. and then cooled on ice.
# T1 sequence (Q01094 64-301, chain 1 of 2): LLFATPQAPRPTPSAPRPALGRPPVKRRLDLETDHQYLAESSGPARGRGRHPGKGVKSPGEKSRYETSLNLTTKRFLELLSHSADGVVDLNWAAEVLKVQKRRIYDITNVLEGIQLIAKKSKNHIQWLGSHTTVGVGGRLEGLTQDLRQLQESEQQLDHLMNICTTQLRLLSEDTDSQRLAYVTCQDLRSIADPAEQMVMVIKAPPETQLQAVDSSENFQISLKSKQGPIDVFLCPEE
# T1 sequence (Q14186 84-249, chain 2 of 2): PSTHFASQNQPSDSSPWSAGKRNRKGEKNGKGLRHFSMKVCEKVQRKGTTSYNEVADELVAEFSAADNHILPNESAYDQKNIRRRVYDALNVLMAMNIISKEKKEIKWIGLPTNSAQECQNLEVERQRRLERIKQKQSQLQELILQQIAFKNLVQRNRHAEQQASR
molecule,measurement,setting,value
"I: WVRWHFGRKKRRQRRRPPQKK[βAla] / II: WVRWHFGRKKRRQRRRPPQK / III: WVRWHFGRKKRRQRRRPPQ / IV: WVRWHFGRKKRRQRRRPPQ (amide I:20-IV:C, I:21-II:C, II:20-III:C) [MAP-4-SEQ ID NO:2-TAT]",inhibition of proliferation,[1],inhibited proliferation
same,DNA laddering,[2],internucleosomal DNA cleavage
same,effect on the SV-40 promoter,[3],No effect
same,inhibition of proliferation,[4],inhibited proliferation
same,inhibition of proliferation,[5],inhibited proliferation
same,hallmarks of apoptosis after staining,[6],chromatin condensation and nuclear fragmentation
same,effect on transcription from CycA-Luciferase construct,[7],Inhibition of transcription
same,inhibition of cell proliferation / cell growth,"[8]; HL60 cells, concentrations between 1-5 μM",Inhibition of cell proliferation
same,time after which effects became visible,[8]; depending on the concentration of the peptide,5 to 24 h
same,inhibition of proliferation,[9],inhibited proliferation
IWLSGLSRGVWVSFP (Synthetic peptide in the band shift assays) [peptide SEQ ID NO:4 (IWLSGLSRGVWVSFP)],binding result,[10],binds
RILTFRSGSWY (also called core-region consisting of amino acids 3-13) [SEQ5-7 (3-13) (RILTFRSGSWY)],inhibitory activity relative to SEQ ID NO:5,[11],~50%
